This is an account of results in US8420653B2, “Pyrimidine compounds and their uses” (Orchid Chemicals & Pharmaceuticals Limited, priority 2008, dated 2013).

As usually defined, the melting point is the temperature, or range, at which the solid turns liquid.

SMILES strings stand for the structures.

Data set [1] relates to purified recombinant COX-1. Briefly: COX-1 enzyme based assay. The format is biochemical. The method, then: COX-1 and COX-2 enzyme based assays were carried out to check the inhibitory potential of the test compounds on the production of prostaglandin by purified recombinant COX-1/COX-2 enzyme (Proc. Nat. Acad. Sci. USA, 88, 2692-2696, 1991; J. Clin. Immunoassay 15, 116-120, 1992). In this assay, the potential of the test compound to inhibit the production of prostaglandin either by COX-1 or COX-2 from arachidonic acid (substrate) was measured. This was an enzyme based in-vitro assay to evaluate selective COX inhibition with good reproducibility.
Arachidonic acid was converted to PGH2 (Intermediate product) by COX1/COX-2 in the presence or absence of the test compound. The reaction was carried out at 37° C. and after 2 minutes it was stopped by adding 1M HCl. Intermediate product PGH2 was converted to a stable prostanoid product PGF2α by SnCl2 reduction. The amount of PGF2α produced in the reaction was inversely proportional to the COX inhibitory potential of the test compound. The prostanoid product was quantified via enzyme immunoassay (EIA) using a broadly specific antibody that binds to all the major forms of prostaglandin, using Cayman ELISA kit as per the procedure outlined by the manufacturer (Cayman Chemicals, Ann Arbor, USA).

The subject of data set [2] is T1, PDE4.
T1 construct: other: 10 μM, source human U937 cells; PDE4 at 10 μm
Briefly: PDE4 activity (source human U937 cells). Type of data set: biochemical. As to conditions: 10 μM, source human U937 cells. The procedure:
PDE4 inhibition was measured by following a literature assay procedure (Cortizo J et al., Br J. Pharmacol., 1993, 108: 562-568. The assay method involves the following conditions.
Substrate: 1.01 μM [^3H] camp+camp
Pre-Incubation Time/Temperature: 15 minutes at 25° C.
Incubation Time/Temperature. 20 minutes at 25° C.
Incubation buffer: 50 mM Tris-HCl, pH 7.5, 5 mM MgCl2
Quantitation method: Quantitation of [^3H] Adenosine
Significance criteria: ≧50% of max stimulation or inhibition

Data set [3] deals with ulcer formation. Briefly: Ulcerogenic potential. The format is in vivo, male wistar. Particulars: oral, 4 hours after administration. The method, then:
Ulcerogenic Potential In order to evaluate the compound's role on the ulcer formation, the animals were sacrificed and the stomach was taken out and flushed with 1% formalin. Animals (male wistar 200 g) were fasted for 18 hours with free access to water and the test compounds were suspended in 0.5% Tween 80 and 0.25% CMC (carboxymethylcellulose) solution to make a uniform suspension. After 4 hours of oral administration of test compounds, all the animals were sacrificed by cervical dislocation. The stomach was dissected carefully and filled up with a sterile saline solution and embedded in 6% formalin solution. […] The test compound treated groups were compared with the vehicle treated groups. […]

As for `NS(=O)(=O)c1cccc(-c2c(-c3ccccc3)nc(C(F)(F)F)nc2N2CCN(c3ccccn3)CC2)c1` [Example 58], the “% Inhibition in rEnzyme Assay COX-1” value in data set [1] (1 μM) worked out at 10.22%; in data set [1] (10 μM), 9.59%.

Regarding `CS(=O)(=O)c1ccc(-c2nc(C(F)(F)F)nc(N3CCN(Cc4ccc([N+](=O)[O-])s4)CC3)c2-c2ccccc2)cc1` [Example 47, 6-[4-(Methylsulfonyl)phenyl]-4-{4-[(5-nitro-2-thienyl)methyl]piperazin-1-yl}-5-phenyl-2-(trifluoromethyl)pyrimidine], the melting point was 168 to 174 °C.

In turn, `CC(=O)NS(=O)(=O)c1ccc(-c2c(Cl)nc(C(F)(F)F)nc2-c2ccc(S(C)(=O)=O)cc2)cc1` [Example 17, N-[(4-{4-chloro-6-[4-(methylsulfonyl)phenyl]-2-(trifluoromethyl)pyrimidin-5-yl}phenyl)sulfonyl]acetamide] showed a melting point of 230 to 235 °C.

The compound `CS(=O)(=O)c1ccc(-c2nc(C(F)(F)F)nc(N3CCN(Cc4ccncc4)CC3)c2-c2ccccc2)cc1` [Example 46, 4-[4-(Methylsulfonyl)phenyl]-5-phenyl-6-[4-(pyridin-4-ylmethyl)piperazin-1-yl]-2-(trifluoromethyl)pyrimidine] returned a melting point of 228 to 232 °C.

As to `NS(=O)(=O)c1cccc(-c2c(-c3ccccc3)nc(C(F)(F)F)nc2N2CCN(C(=O)C(F)(F)F)CC2)c1` [Example 173, 3-{6-Phenyl-4-[4-(trifluoroacetyl)piperazin-1-yl]-2-(trifluoromethyl)pyrimidin-5-yl}benzenesulfonamide], in data set [2], the “PDE4 inhibition at 10 μM (%)” value stood at 87%.

On to `NS(=O)(=O)c1cccc(-c2c(-c3ccc(F)cc3)nc(C(F)(F)F)nc2N2CCN(c3ccccn3)CC2)c1` [Example 53, 3-[4-(4-Fluorophenyl)-6-(4-pyridin-2-ylpiperazin-1-yl)-2-(trifluoromethyl)pyrimidin-5-yl]benzenesulfonamide], for which the “% Inhibition in rEnzyme Assay COX-1” value in data set [1] (1 μM) is on record as 46.29%; in data set [1] (10 μM), 56.85%.

Consider `NS(=O)(=O)c1cccc(-c2c(-c3ccc(F)cc3)nc(C(F)(F)F)nc2N2CCN(S(=O)(=O)C(F)(F)F)CC2)c1` [Example 77, 5-(3-Aminosulfonylphenyl)-4-(4-fluorophenyl)-2-(trifluoromethyl)-6-{4-[(trifluoromethyl)sulfonyl]piperazin-1-yl}pyrimidine], for which, in data set [2], the “PDE4 inhibition at 10 μM (%)” value was 94%.

Take `CNc1nc(C(F)(F)F)nc(-c2ccc(S(C)(=O)=O)cc2)c1-c1ccc(S(=O)(=O)NC)cc1` [Example 5, 4-{4-(Methylamino)-6-[4-(methylsulfonyl)phenyl]-2-(trifluoromethyl)pyrimidin-5-yl}-N-methylbenzenesulfonamide]: in data set [3], the “Ulcer incidence at 5 mg/kg” value is “Nil”.

As for `CS(=O)(=O)c1ccc(-c2nc(C(F)(F)F)nc(N3CCN(c4ccccn4)CC3)c2-c2ccccc2)cc1` [Example 49, 4-[4-(Methylsulfonyl)phenyl]-5-phenyl-6-(4-pyridin-2-yl-piperazin-1-yl)-2-(trifluoromethyl)pyrimidine], the melting point was in the range of 229 to 233 °C.

For `FC(F)(F)c1nc(-c2ccccc2)c(-c2ccccc2)c(N2CCN(c3ccccn3)CC2)n1` [Example 48, 4,5-diphenyl-6-(4-pyridin-2-yl-piperazin-1-yl)-2-(trifluoromethyl)pyrimidine], the melting point was in the range of 165 to 167 °C.

Regarding `NS(=O)(=O)c1cccc(-c2c(-c3ccccc3)nc(C(F)(F)F)nc2N2CCN(c3ccc(C(F)(F)F)cn3)CC2)c1` [Example 116, 3-[6-{4-[5-(trifluoromethyl)pyridin-2-yl]piperazin-1-yl}-4-phenyl-2-(trifluoromethyl)pyrimidin-4-yl]benzenesulfonamide], the “% Inhibition in rEnzyme Assay COX-1” value in data set [1] (1 μM) worked out at 6.29%; in data set [1] (10 μM) it was 19.24%.

`NS(=O)(=O)c1cccc(-c2c(-c3ccccc3)nc(C(F)(F)F)nc2N2CCNCC2)c1` [Example 51, 3-[4-Phenyl-6-piperazin-1-yl-2-(trifluoromethyl)pyrimidin-5-yl]benzenesulfonamide]: the “% Inhibition in rEnzyme Assay COX-1” value in data set [1] (1 μM) is reported as 8.27%; in data set [1] (10 μM), 7.1%.

Regarding `NS(=O)(=O)c1cccc(-c2c(-c3ccccc3)nc(C(F)(F)F)nc2N2CCC(=O)CC2)c1` [Example 179, 3-[6-Phenyl-4-(4-oxopiperidin-1-yl)-2-(trifluoromethyl)pyrimidin-5-yl]benzenesulfonamide], the “PDE4 inhibition at 10 μM (%)” value in data set [2] was determined as 84%.

For `NS(=O)(=O)c1cccc(-c2c(-c3ccc(F)cc3)nc(C(F)(F)F)nc2N2CCN(c3ncccn3)CC2)c1` [Example 54, 3-[4-(4-Fluorophenyl)-6-(4-pyrimidin-2-ylpiperazin-1-yl)-2-(trifluoromethyl)pyrimidin-5-yl]benzenesulfonamide], the “% Inhibition in rEnzyme Assay COX-1” value is 34.42% in data set [1] (1 μM) and 45.53% in data set [1] (10 μM).

`NS(=O)(=O)c1cccc(-c2c(-c3ccc(F)cc3)nc(C(F)(F)F)nc2N2CCN(C(=O)C(F)(F)F)CC2)c1` [Example 109, 3-{6-(4-Fluorophenyl)-4-[4-(trifluoroacetyl)piperazin-1-yl]-2-(trifluoromethyl)pyrimidin-5-yl}benzenesulfonamide]: the “PDE4 inhibition at 10 μM (%)” value in data set [2] was found to be 90%.

For the compound `CS(=O)(=O)c1ccc(-c2nc(C(F)(F)F)nc(NN)c2-c2ccc(S(=O)(=O)NN)cc2)cc1` [Example 7, 4-{4-hydrazino-6-[4-(methylsulfonyl)phenyl]-2-(trifluoromethyl)pyrimidin-5-yl}benzenesulfonohydrazide], the melting point was in the range of 203 to 206 °C.

The compound `O=C(NNc1nc(C(F)(F)F)nc(-c2ccncc2)c1-c1ccc(F)cc1)C(F)(F)F` [Example 14, 2,2,2-trifluoro-N′-[5-(4-fluorophenyl)-6-pyridin-4-yl-2-(trifluoromethyl)pyrimidin-4-yl]acetohydrazide] displayed a melting point of 240 to 242 °C.

Take `CNS(=O)(=O)c1ccc(-c2c(Cl)nc(C(F)(F)F)nc2-c2ccc(S(C)(=O)=O)cc2)cc1` [Example 4, 4-{4-chloro-6-[4-(methylsulfonyl)phenyl]-2-(trifluoromethyl)pyrimidin-5-yl}-N-methylbenzenesulfonamide]: the melting point was 226 to 230 °C. Further, the “Ulcer incidence at 5 mg/kg” value in data set [3] is “Nil”.

Regarding `N#CCCN1CCN(c2nc(C(F)(F)F)nc(-c3ccc(F)cc3)c2-c2cccc(S(N)(=O)=O)c2)CC1` [Example 100, 3-{4-[4-(2-cyanoethyl)piperazin-1-yl]-6-(4-fluorophenyl)-2-(trifluoromethyl)pyrimidin-5-yl}benzenesulfonamide], the “PDE4 inhibition at 10 μM (%)” value in data set [2] came out at 92%.

Consider `Fc1ccc(-c2nc(C(F)(F)F)nc(NC3CC3)c2-c2ccccc2)cc1` [Example 175, N-Cyclopropyl-6-(4-fluorophenyl)-5-phenyl-2-(trifluoromethyl)pyrimidin-4-amine], for which the “PDE4 inhibition at 10 μM (%)” value in data set [2] is 88%.

Take `CS(=O)(=O)c1ccc(-c2nc(C(F)(F)F)nc(Cl)c2-c2ccc(S(=O)(=O)Cl)cc2)cc1` [Example 3, 4-{4-chloro-6-[4-(methylsulfonyl)phenyl]-2-(trifluoromethyl)pyrimidin-5-yl}benzenesulfonyl chloride]: the melting point lay within 207 to 210 °C.

In the case of `NS(=O)(=O)c1cccc(-c2c(-c3ccccc3)nc(C(F)(F)F)nc2N2CCN(c3ncccn3)CC2)c1` [Example 57], the “% Inhibition in rEnzyme Assay COX-1” value in data set [1] (10 μM) is given as 5.7%.

For the compound `NS(=O)(=O)c1cccc(-c2nc(C(F)(F)F)nc(-n3ccnc3)c2-c2ccccc2)c1` [Example 167, 3-[4-(1H-imidazol-1-yl)-5-phenyl-2-(trifluoromethyl)pyrimidin-6-yl]benzenesulfonamide], the “PDE4 inhibition at 10 μM (%)” value in data set [2] is 82%.

With `CS(=O)(=O)c1ccc(-c2nc(C(F)(F)F)nc(OS(=O)(=O)c3cccc4ccccc34)c2-c2ccccc2)cc1` [Example 18, 6-[4-(methylsulfonyl)phenyl]-5-phenyl-2-(trifluoromethyl)pyrimidin-4-yl napthalenesulfonate], the melting point was in the range of 204 to 206 °C.

As to `CNS(=O)(=O)c1ccc(-c2c(N)nc(C(F)(F)F)nc2-c2ccc(S(C)(=O)=O)cc2)cc1` [Example 2, 4-{4-Amino-6-[4-(methylsulfonyl)phenyl]-2-(trifluoromethyl)pyrimidin-5-yl}-N-methylbenzenesulfonamide], the entries for the “% Inhibition in rEnzyme Assay COX-1” value in data set [1] (1 μM) and in data set [1] (10 μM) were 33.84% and 50.41%, respectively.
